Where two headings read alike, the source gives them in different places.
How the values were obtained:
[1] = test system: Mantle cell lymphoma cell line Jeko; experiment: MTS anti-proliferation assay; format: cell-based
Protocol: MTS proliferation assays were performed according the CellTiter 96™ Aqueous Cell Proliferation Assay Technical Bulletin (Promega, Madison, Wis.). 5×10^5 cells were plated in each well of a 96-well plate at 37° C. and assayed for proliferation at 24, 48, and 72 hr. Proliferation signal at 50% of control was used as IC50 for growth.
(§1) Following the synthesis of 14 compounds, the anti-proliferation and pro-apoptotic activities of those compounds was evaluated in Mantle cell lymphoma cell line Jeko. Replicate cultures of Jeko were incubated in DMSO and the compounds for 24, 48 and 72 hours. FITC-Annexin V-PI stained flow cytometry was used to detect the apoptotic population of cells (Table 4).

[2] = 24 hr Quick MTD test, one mouse for each dose; format: in vivo
Protocol: (§2) Controlled shRNA depletion was evaluated in a murine lymphoma model (Eμ-BRD2 (Chung, J., et al. (2013) J. Biological Chemistry 288, 35534-35547)) and human xenograft model of glioblastoma (Yan, F., et al (2014) Cancer Research In Press). Referring to FIG. 62A, controlled expression of a PRMT5 shRNA (solid line) but not control shRNA (dashed line) leads to 100% survival of mice engrafted primary DLBCL tumor cells. […] The maximum tolerated dose (MTD, single dose) was identified at 50 mg/kg (see Table 11 below). A sub-toxic dose (25 mg/kg) was used to treat FcMCL mice. Control mice developed peripheral blood and lymph node tumor burden starting day 20 post-engraftment.

[3] = MTD study, four mice each dose; format: in vivo
Protocol: as §2

[4] = molecular target: T1, recombinant human PRMT5/MEP50 enzyme (Homo sapiens, UniProt O14744); experiment: Epigenase PRMT methyltransferase (type II-specific) activity/inhibition assay kit; format: biochemical; conditions: 25 ng recombinant human PRMT5/MEP50 per reaction; read-out: Inhibition of PRMT5 mediated H4R3 methylation (IC50)
T1 construct: purchased BPS Bioscience
Protocol: The inhibition of PRMT5 mediated H4R3 methylation result was obtained with Epigenase™ PRMT methyltransferase (type II-specific) activity/inhibition assay kit. 25 ng recombinant human PRMT5/MEP50 enzyme (purchased from BPS Bioscience) was used in each reaction.

[5] = test system: Mantle cell lymphoma cell line Jeko; experiment: Induction of apoptosis, FITC-Annexin V-PI flow cytometry; format: cell-based
Protocol: Analysis by flow cytometry. Cell viability was also measured by flow cytometry at 24 and 48 hr using annexin-V-FITC and propidium iodide (PI) according to the manufacturer's instructions (BD Biosciences).
as §1

HNSCC tumor cells = experiment: Proliferation of HNSCC tumor cells; format: cell-based; conditions: FIG. 58
[6] = In vivo pharmacokinetics, plasma concentration; design: species or system Mouse; conditions: for concentration at 0.08 h / concentration at 0.17 h / concentration at 0.33 h / concentration at 0.5 h / concentration at 1 h / concentration at 2 h / concentration at 4 h / concentration at 6 h / concentration at 8 h / concentration at 24 h: mouse, in vivo
From the text: Pharmacokinetic data of compounds HLCL-7, HLCL-61, and HLCL-66 taken from an in vivo study is illustrated in Table 10. […]

multiple cell lines = experiment: Proliferation of multiple cell lines (FIG. 59); format: cell-based; conditions: FIG. 59A-E
Protocol: Proliferation of multiple cell lines was evaluated for CMPD 5, CMPD 7, HLCL61, HLCL-65, and HLCL-66 (FIG. 59A-E).

JeKo cells = experiment: Immunofluorescence staining of methylated H4(Me2)R3 / H3(Me2)R8; format: cell-based; conditions: FIG. 2F
Protocol: DAPI was used to stain nuclei.
Immunofluorescence assays for screening for presence of type II PRMT epigenetic marks (H4(SMe2)R3) compared to type I mark (H4(AMe2)R3). Cell lines were incubated for 24 hours with all the 14 compounds. After 24 hours, cells were fixed, blocked and treated with mAbs specific for symmetric dimethylation and asymmetric dimethylation of histone H4R3 respectively. Alexa Fluor 488 conjugated 2nd Ab was used for the staining of histone marks (green). Draq5 was used to stain nuclei (blue).

FcMCL mice = experiment: FcMCL mantle cell lymphoma mouse model; format: in vivo; conditions: 25 mg/kg, IP, every other day
Protocol: as §2

[7] = mouse, in vivo, ip, 50 mg/kg, 24 h

T1 sequence (O14744 2-637 limits assumed): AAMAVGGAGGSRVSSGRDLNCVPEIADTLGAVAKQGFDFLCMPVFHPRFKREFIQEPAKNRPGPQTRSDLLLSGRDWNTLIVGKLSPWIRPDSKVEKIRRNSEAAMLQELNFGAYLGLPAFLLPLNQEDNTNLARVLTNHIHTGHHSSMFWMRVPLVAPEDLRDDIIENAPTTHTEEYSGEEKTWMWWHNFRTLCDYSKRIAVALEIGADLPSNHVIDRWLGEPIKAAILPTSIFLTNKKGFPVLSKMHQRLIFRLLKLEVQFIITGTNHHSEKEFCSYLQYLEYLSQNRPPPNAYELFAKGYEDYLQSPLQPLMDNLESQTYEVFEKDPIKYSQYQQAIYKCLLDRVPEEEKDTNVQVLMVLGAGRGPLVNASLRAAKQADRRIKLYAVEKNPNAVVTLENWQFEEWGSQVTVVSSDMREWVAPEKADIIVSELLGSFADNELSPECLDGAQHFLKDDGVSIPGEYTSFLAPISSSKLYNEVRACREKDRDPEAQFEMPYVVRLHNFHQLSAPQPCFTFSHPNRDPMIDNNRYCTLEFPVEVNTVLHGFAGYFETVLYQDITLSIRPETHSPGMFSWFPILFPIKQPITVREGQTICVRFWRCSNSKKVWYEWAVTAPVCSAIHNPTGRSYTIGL
T1 sequence (Q9BQA1 2-342 partner limits assumed): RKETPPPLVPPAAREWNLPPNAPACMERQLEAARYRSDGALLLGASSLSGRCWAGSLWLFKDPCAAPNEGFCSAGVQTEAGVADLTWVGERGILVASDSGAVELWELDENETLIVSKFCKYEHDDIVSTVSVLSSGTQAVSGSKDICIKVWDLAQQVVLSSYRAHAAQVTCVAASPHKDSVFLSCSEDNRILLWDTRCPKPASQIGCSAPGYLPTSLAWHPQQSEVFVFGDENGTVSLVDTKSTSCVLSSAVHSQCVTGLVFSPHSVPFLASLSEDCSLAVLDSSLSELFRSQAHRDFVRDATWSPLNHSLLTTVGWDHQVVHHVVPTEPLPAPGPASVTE

CCn1c2ccccc2c2cc(NC(=N)Nc3ccc(S(C)(=O)=O)cc3)ccc21 [HLCL-7]
IC50 ([1]; 24 h incubation): 32 µM
IC50 ([1]; 48 h incubation): 26 µM
IC50 ([1]; 72 h incubation): 13 µM
survival after dosing ([2]; IV-2.5 mg/kg, one mouse): Alive 24 hr after
survival after dosing [2, 7]: Alive 24 hr after
survival after dosing ([2]; mouse, in vivo, ip, 100 mg/kg, 24 h): Dead within 1 hr after
survival after dosing ([2]; mouse, in vivo, ip, 200 mg/kg, 24 h): Dead within 1 hr after
survival after dosing ([2]; mouse, in vivo, iv, 5 mg/kg, 24 h): Alive 24 hr after
clinical signs after dosing (slow moving) ([2]; mouse, in vivo, iv, 10 mg/kg): dosing but slow
survival after dosing ([2]; mouse, in vivo, iv, 10 mg/kg, 24 h): Alive 24 hr after
survival after dosing ([2]; mouse, in vivo, iv, 20 mg/kg): Dead instantly after
survival 24 hr after dosing ([3]; mouse, in vivo, ip, 5 mg/kg, 24 h): Alive 24 hr after
condition within 1 hr after dosing (alive but slow moving) ([3]; mouse, in vivo, ip, 50 mg/kg): Alive within 1 hr after
mice lethargic and slow moving 24 hr after dosing [3, 7]: after dosing, 1 out 4
survival 24 hr after dosing [3, 7]: moving. Alive 24 hr
IC50 [4]: 7 µM
EC50 ([5]; 24 h): 32 µM
EC50 ([5]; 48 h): 26 µM
proliferation of HNSCC tumor cells (HNSCC tumor cells): inhibit proliferation in a dose-dependent manner
concentration at 0.08 h ([6]; ip, 25 mg/kg): 7570 nM
concentration at 0.17 h ([6]; ip, 25 mg/kg): 886 nM
concentration at 0.33 h ([6]; ip, 25 mg/kg): 7540 nM
concentration at 0.5 h ([6]; ip, 25 mg/kg): 7480 nM
concentration at 1 h ([6]; ip, 25 mg/kg): 4910 nM
concentration at 2 h ([6]; ip, 25 mg/kg): 7680 nM
concentration at 4 h ([6]; ip, 25 mg/kg): 4130 nM
concentration at 6 h ([6]; ip, 25 mg/kg): 2540 nM
concentration at 8 h ([6]; ip, 25 mg/kg): 2790 nM
concentration at 24 h ([6]; ip, 25 mg/kg): 1.35 nM
concentration at 0.08 h ([6]; iv, 5 mg/kg): 3240 nM
concentration at 0.17 h ([6]; iv, 5 mg/kg): 3070 nM
concentration at 0.33 h ([6]; iv, 5 mg/kg): 1500 nM
concentration at 0.5 h ([6]; iv, 5 mg/kg): 911 nM
concentration at 1 h ([6]; iv, 5 mg/kg): 601 nM
concentration at 2 h ([6]; iv, 5 mg/kg): 507 nM
concentration at 4 h ([6]; iv, 5 mg/kg): 200 nM
concentration at 6 h ([6]; iv, 5 mg/kg): 76.2 nM
concentration at 8 h ([6]; iv, 5 mg/kg): 77.1 nM
concentration at 24 h ([6]; iv, 5 mg/kg): 1.38 nM

CCn1c2ccccc2c2cc(CNCc3ccccn3)ccc21 [CMP5, reference compound]
potency, proliferation of multiple cell lines (multiple cell lines): low micromolar range
PRMT5 driven epigenetic marks (symmetrically methylated H4(Me2)R3, H3(Me2)R8) (JeKo cells): interferes with PRMT5 driven epigenetic marks

CCn1c2ccc(Br)cc2c2cc(CNCc3ccccc3OC)ccc21 [HLCL-65]
IC50 ([1]; 24 h incubation): 9 µM
IC50 ([1]; 48 h incubation): 8 µM
IC50 ([1]; 72 h incubation): 6 µM
survival after dosing ([2]; IP-50 mg/kg, one mouse): Alive 24 hr after
clinical signs after dosing ([2]; IP-100 mg/kg, one mouse, after 24 hr): paralyzed
clinical signs after dosing ([2]; IP-200 mg/kg, one mouse): Paralyzed after dosing,
survival after dosing ([2]; IP-200 mg/kg, one mouse): dead within 1 hr
survival after dosing ([2]; IV-2.5 mg/kg, one mouse): Dead instantly after
survival after dosing ([2]; IV-5 mg/kg, one mouse): Alive 24 hr after
survival after dosing ([2]; IV-10 mg/kg, one mouse): Dead instantly after
survival after dosing ([2]; IV-20 mg/kg, one mouse): Dead instantly after
potency, proliferation of multiple cell lines (multiple cell lines): low micromolar range
tumor burden in FcMCL mice (FcMCL mice; lymph node versus peripheral blood): controlling development of lymph node tumor burden but not peripheral blood FcMCL tumor burden
survival of FcMCL mice (FcMCL mice; preliminary experiment): improved survival
survival 24 hr after dosing ([3]; IP-5 mg/kg, four mice): Alive 24 hr after
condition within 1 hr after dosing (alive but slow moving) ([3]; IP-50 mg/kg, four mice): Alive within 1 hr after
survival 24 hr after dosing ([3]; IP-50 mg/kg, four mice): moving. Alive 24 hr
MTD at 24 h ([3]; mouse, in vivo, single dose, mice, read-out: maximum tolerated dose (MTD, single dose)): 50 mg/kg
IC50 [4]: 30 µM
EC50 ([5]; 24 h): 4 µM
EC50 ([5]; 48 h): 5 µM
peak plasma concentrations ([6]; IV and IP routes at a dose of 25 mg/kg, FIG. 62B): 8 to 20 µM
concentration at 0.08 h ([6]; IP 25 mg/kg, DMSO solution, 0.08 h, read-out: Mouse plasma concentration): 6240 nM
concentration at 0.17 h ([6]; IP 25 mg/kg, DMSO solution, 0.17 h, read-out: Mouse plasma concentration): 6270 nM
concentration at 0.33 h ([6]; IP 25 mg/kg, DMSO solution, 0.33 h, read-out: Mouse plasma concentration): 5280 nM
concentration at 0.5 h ([6]; IP 25 mg/kg, DMSO solution, 0.50 h, read-out: Mouse plasma concentration): 1660 nM
concentration at 1 h ([6]; IP 25 mg/kg, DMSO solution, 1.00 h, read-out: Mouse plasma concentration): 1590 nM
concentration at 2 h ([6]; IP 25 mg/kg, DMSO solution, 2.00 h, read-out: Mouse plasma concentration): 8450 nM
concentration at 4 h ([6]; IP 25 mg/kg, DMSO solution, 4.00 h, read-out: Mouse plasma concentration): 4510 nM
concentration at 6 h ([6]; IP 25 mg/kg, DMSO solution, 6.00 h, read-out: Mouse plasma concentration): 5480 nM
concentration at 8 h ([6]; IP 25 mg/kg, DMSO solution, 8.00 h, read-out: Mouse plasma concentration): 3710 nM
concentration at 24 h ([6]; IP 25 mg/kg, DMSO solution, 24.0 h, read-out: Mouse plasma concentration): 480 nM
concentration at 0.08 h ([6]; IV 5 mg/kg, Tween80 formulation, 0.08 h, read-out: Mouse plasma concentration): 2940 nM
concentration at 0.17 h ([6]; IV 5 mg/kg, Tween80 formulation, 0.17 h, read-out: Mouse plasma concentration): 2050 nM
concentration at 0.33 h ([6]; IV 5 mg/kg, Tween80 formulation, 0.33 h, read-out: Mouse plasma concentration): 2940 nM
concentration at 0.5 h ([6]; IV 5 mg/kg, Tween80 formulation, 0.50 h, read-out: Mouse plasma concentration): 2390 nM
concentration at 1 h ([6]; IV 5 mg/kg, Tween80 formulation, 1.00 h, read-out: Mouse plasma concentration): 1890 nM
concentration at 2 h ([6]; IV 5 mg/kg, Tween80 formulation, 2.00 h, read-out: Mouse plasma concentration): 1930 nM
concentration at 4 h ([6]; IV 5 mg/kg, Tween80 formulation, 4.00 h, read-out: Mouse plasma concentration): 1530 nM
concentration at 6 h ([6]; IV 5 mg/kg, Tween80 formulation, 6.00 h, read-out: Mouse plasma concentration): 720 nM
concentration at 8 h ([6]; IV 5 mg/kg, Tween80 formulation, 8.00 h, read-out: Mouse plasma concentration): 513 nM
concentration at 24 h ([6]; IV 5 mg/kg, Tween80 formulation, 24.0 h, read-out: Mouse plasma concentration): 29.6 nM

Source: US9856218B2, “Inhibitors of PRMT5 and methods of their use” (Ohio State Innovation Foundation, priority 2013, dated 2018)
